Key:
Assay type in all cases: cell-based
TLR2 [1] = molecular target: T1, TLR2 (Homo sapiens, UniProt O60603); assay: TLR2 in vitro functional assay, cytokine release from human monocytic cell line THP-1; conditions: THP-1 human monocytic cell line, average of all runs
Protocol: (§1) Cells of the immune system respond to TLR agonists in part by secreting cytokines. Functional assays for TLR2 agonists measure cytokine release from purified immune cells or immortalized cell lines derived from immune cells. Cytokine release is measured by standard ELISA approaches or multiplexed analysis using the Meso Scale Discovery (MSD) platform.
Following assay measurements utilizing either HEK-Blue detection or cytokine release, all data is analyzed with the GraphPad Prism8 statistical package to determine EC50, binding and activity metrics for the TLR2 modulators. […]
(§2) Numerous cell lines derived from various cell types can respond to TLR2 agonists with stereotyped cytokine and chemokine secretion. In particular, cell lines derived from macrophages respond robustly to TLR2 agonists by secreting a wide array of cytokines, including (but not limited to) TNF-alpha, IL-1, IL-10 and IL-12. The human monocytic cell line THP-1, the mouse macrophage line RAW-264.7, and the rat macrophage line NR8383 were used. For each assay, the respective cell lines were plated into 96-well plates overnight and then treated the following day with various TLR2-engaging compounds at varying concentrations. The next day, supernatants were collected and assayed by multiplex immunodetection for cytokines released (MSD detection kits for respective species).
(§3) Data provided in Table 5 is generated using protocols described in Example 45 and 46.

TLR2 [2] = molecular target: T1, TLR2; assay: TLR2 agonist screening assay, HEK-Blue TLR2 reporter cell line (NF-kB-driven SEAP, absorbance at 600 nm); set-up: host or cells: HEK-293 (HEK-Blue TLR2 reporter cell line); conditions: HEK-Blue TLR2 reporter cells, agonist mode
Outline: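 EC50 values come from dilution series of agonist on TLR2-transfected HEK-293 reporter cells carrying an NF-kB-SEAP construct. Cells sat overnight with compound in substrate-containing Detection medium at 1% DMSO, and secreted phosphatase activity was quantified as absorbance at 600 nm.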

TLR2 [3] = molecular target: T2, TLR2 (Mus musculus, UniProt Q9QUN7); assay: TLR2 functional assay, cytokine release from RAW 264.7 mouse macrophage cell line; conditions: average of all runs
T2 construct: endogenous in cells; host or cells: RAW 264.7
Protocol: as §1
Purified primary human peripheral blood mononuclear cells or RAW 264.7 mouse macrophage cell line cells are plated at approximately 40,000 cells per well. Cells are treated with agonist compounds and assays 6-24 hours post-treatment for cytokines released into the cell culture media.
Following assay measurements utilizing either HEK-Blue detection or cytokine release, all data is analyzed with the GraphPad Prism8 statistical package to determine EC50, binding and activity metrics for the TLR2 modulators.
as §2, §3

T1 sequence (O60603 21-784): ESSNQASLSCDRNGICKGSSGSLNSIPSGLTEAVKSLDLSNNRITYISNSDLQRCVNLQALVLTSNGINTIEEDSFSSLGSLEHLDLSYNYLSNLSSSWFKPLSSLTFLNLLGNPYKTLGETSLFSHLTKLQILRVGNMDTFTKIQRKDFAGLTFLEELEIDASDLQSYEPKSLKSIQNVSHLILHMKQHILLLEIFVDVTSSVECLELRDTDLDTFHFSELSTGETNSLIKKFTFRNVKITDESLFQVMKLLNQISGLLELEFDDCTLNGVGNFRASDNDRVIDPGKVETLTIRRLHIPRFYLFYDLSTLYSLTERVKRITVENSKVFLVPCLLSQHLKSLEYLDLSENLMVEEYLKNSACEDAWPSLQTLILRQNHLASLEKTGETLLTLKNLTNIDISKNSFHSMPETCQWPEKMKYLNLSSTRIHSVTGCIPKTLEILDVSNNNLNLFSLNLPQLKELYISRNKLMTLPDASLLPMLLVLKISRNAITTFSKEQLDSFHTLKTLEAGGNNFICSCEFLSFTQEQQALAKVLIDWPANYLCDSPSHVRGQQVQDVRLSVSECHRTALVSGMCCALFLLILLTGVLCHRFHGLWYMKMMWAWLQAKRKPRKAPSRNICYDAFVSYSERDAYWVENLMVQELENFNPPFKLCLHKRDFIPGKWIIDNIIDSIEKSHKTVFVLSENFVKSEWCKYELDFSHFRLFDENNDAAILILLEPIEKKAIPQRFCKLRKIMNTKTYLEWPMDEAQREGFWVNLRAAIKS
T2 sequence (Q9QUN7 25-784): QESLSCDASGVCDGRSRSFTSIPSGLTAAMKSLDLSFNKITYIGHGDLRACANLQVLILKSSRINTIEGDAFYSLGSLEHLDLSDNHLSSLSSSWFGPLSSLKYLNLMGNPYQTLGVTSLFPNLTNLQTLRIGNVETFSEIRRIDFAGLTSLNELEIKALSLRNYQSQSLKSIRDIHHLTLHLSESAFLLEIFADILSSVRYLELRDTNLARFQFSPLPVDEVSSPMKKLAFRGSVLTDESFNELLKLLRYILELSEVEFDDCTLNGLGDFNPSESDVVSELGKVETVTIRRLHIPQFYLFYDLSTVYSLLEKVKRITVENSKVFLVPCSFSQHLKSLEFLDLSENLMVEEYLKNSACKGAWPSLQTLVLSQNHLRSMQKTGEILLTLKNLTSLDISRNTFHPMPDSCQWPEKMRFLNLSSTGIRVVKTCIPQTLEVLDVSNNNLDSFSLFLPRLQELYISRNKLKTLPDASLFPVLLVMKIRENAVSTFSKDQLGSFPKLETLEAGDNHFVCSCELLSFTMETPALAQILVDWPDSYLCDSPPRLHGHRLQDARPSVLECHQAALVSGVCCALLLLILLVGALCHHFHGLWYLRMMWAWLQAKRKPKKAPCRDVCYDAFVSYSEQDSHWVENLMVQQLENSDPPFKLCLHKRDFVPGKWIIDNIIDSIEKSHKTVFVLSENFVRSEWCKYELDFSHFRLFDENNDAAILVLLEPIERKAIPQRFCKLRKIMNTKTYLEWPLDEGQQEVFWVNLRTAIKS

Row | SMILES | EC50 (TLR2 [1]) [nM] | EC50 (TLR2 [2]; average of all runs (Table 3)) [nM] | EC50 (TLR2 [2]; average of all runs (Table 4)) [nM] | EC50 (TLR2 [3]) [nM]
1 | CCCCCCCNC(=O)[C@@H]1CN(C(=O)c2ccc(C(=O)N3C[C@@H](C(=O)N[C@H]4C[C@@H]4c4ccccc4)[C@H](C(=O)N[C@H]4C[C@@H]4c4ccccc4)C3)cc2)C[C@@H]1OCCCCCCC (relative stereo) [Compound 063, (3S,4S)-1-(4-((3R*,4R*)-3-(heptylcarbamoyl)-4-(heptyloxy)pyrrolidine-1-carbonyl)benzoyl)-N3,N4-bis((1S,2R)-2-phenylcyclopropyl)pyrrolidine-3,4-dicarboxamide] | 0.1 to 50 | 351 to 1000 | – | –
2 | CCCCCCCC(=O)N1CCN(C(=O)c2ccc(C(=O)N3C[C@@H](C(=O)N[C@H]4C[C@@H]4c4ccccc4)[C@H](C(=O)N[C@H]4C[C@@H]4c4ccccc4)C3)cc2)CC1C(=O)NCCc1ccc(F)cc1 (stereo partly drawn) [Compound 036, (3S,4S)-1-(4-(3-((4-fluorophenethyl)carbamoyl)-4-octanoylpiperazine-1-carbonyl)benzoyl)-N3,N4-bis((1S,2R)-2-phenylcyclopropyl)pyrrolidine-3,4-dicarboxamide] | 0.1 to 50 | 0.1 to 50 | – | –
3 | CCCCCCCC(=O)N1CC(=O)N(Cc2ccc(C(=O)N3C[C@@H](C(=O)N[C@H]4C[C@@H]4c4ccccc4)[C@H](C(=O)N[C@H]4C[C@@H]4c4ccccc4)C3)cc2)C[C@H]1C(=O)NCCCCCC [Compound 076, (3S,4S)-1-(4-(((S)-5-(hexylcarbamoyl)-4-octanoyl-2-oxopiperazin-1-yl)methyl)benzoyl)-N3,N4-bis((1S,2R)-2-phenylcyclopropyl)pyrrolidine-3,4-dicarboxamide] | 0.1 to 50 | 0.1 to 50 | – | –
4 | CCCCCCCCCCCCCCNC(=O)[C@@H]1CN(C(=O)c2ccc(C(=O)N3C[C@@H](C(=O)N[C@H]4C[C@@H]4c4ccccc4)[C@H](C(=O)N[C@H]4C[C@@H]4c4ccccc4)C3)cc2)C[C@H]1OC (relative stereo) [Compound 060, (3S,4S)-1-(4-((3S*,4R*)-3-methoxy-4-(tetradecylcarbamoyl)pyrrolidine-1-carbonyl)benzoyl)-N3,N4-bis((1S,2R)-2-phenylcyclopropyl)pyrrolidine-3,4-dicarboxamide] | 0.1 to 50 | 0.1 to 50 | – | –
5 | CCCCCCCCCCCCCCNC(=O)[C@H]1CN(C(=O)c2ccc(C(=O)N3C[C@@H](C(=O)N[C@H]4C[C@@H]4c4ccccc4)[C@H](C(=O)N[C@H]4C[C@@H]4c4ccccc4)C3)cc2)C[C@@H]1OC [Compound 110, (3S,4S)-1-(4-((3R,4S)-3-methoxy-4-(tetradecylcarbamoyl)pyrrolidine-1-carbonyl)benzoyl)-N3,N4-bis((1S,2R)-2-phenylcyclopropyl)pyrrolidine-3,4-dicarboxamide] | 0.1 to 50 | – | 0.1 to 50 | –
6 | CCCCCCCCCCCCCCC(=O)N[C@H]1CCN(C(=O)c2ccc(C(=O)N3C[C@@H](C(=O)N[C@H]4C[C@@H]4c4ccccc4)[C@H](C(=O)N[C@H]4C[C@@H]4c4ccccc4)C3)cc2)C1 [Compound 026, (3S,4S)-1-(4-((S)-3-pentadecanamidopyrrolidine-1-carbonyl)benzoyl)-N3,N4-bis((1S,2R)-2-phenylcyclopropyl)pyrrolidine-3,4-dicarboxamide] | 51 to 350 | 51 to 350 | – | –
7 | CCCCCCCCCOC(=O)N[C@@H](CNC(=O)c1ccc(C(=O)N2C[C@@H](C(=O)N[C@H]3C[C@@H]3c3ccccc3)[C@H](C(=O)N[C@H]3C[C@@H]3c3ccccc3)C2)cc1)C(=O)NCCCCCC [Compound 229, nonyl ((S)-3-(4-((3S,4S)-3,4-bis(((1S,2R)-2-phenylcyclopropyl)carbamoyl)pyrrolidine-1-carbonyl)benzamido)-1-(hexylamino)-1-oxopropan-2-yl)carbamate] | – | – | 0.1 to 50 | > 1000
8 | CCCCCCCCC(=O)N[C@@H](CNC(=O)c1ccc(C(=O)N2C[C@@H](C(=O)N[C@H]3C[C@@H]3c3ccccc3)[C@H](C(=O)N[C@H]3C[C@@H]3c3ccccc3)C2)cc1)C(=O)NCCCCCC [Compound 140, (3S,4S)-1-(4-(((S)-3-(hexylamino)-2-nonanamido-3-oxopropyl)carbamoyl)benzoyl)-N3,N4-bis((1S,2R)-2-phenylcyclopropyl)pyrrolidine-3,4-dicarboxamide] | – | – | 0.1 to 50 | 51 to 350

Now from value to compound:

Row | EC50 (TLR2 [1]) [nM] | EC50 (TLR2 [2]; average of all runs (Table 3)) [nM] | EC50 (TLR2 [2]; average of all runs (Table 4)) [nM] | EC50 (TLR2 [3]) [nM] | SMILES
9 | 0.1 to 50 | – | 0.1 to 50 | – | CCCCCCCCCCCCCCNC(=O)[C@H]1CN(C(=O)c2ccc(C(=O)N3C[C@@H](C(=O)N[C@H]4C[C@@H]4c4ccccc4)[C@H](C(=O)N[C@H]4C[C@@H]4c4ccccc4)C3)cc2)C[C@H]1O (relative stereo) [Compound 104, (3S,4S)-1-(4-((3S*,4S*)-3-hydroxy-4-(tetradecylcarbamoyl)pyrrolidine-1-carbonyl)benzoyl)-N3,N4-bis((1S,2R)-2-phenylcyclopropyl)pyrrolidine-3,4-dicarboxamide]
10 | 0.1 to 50 | 0.1 to 50 | – | – | CCCCCCCCCCCCCCC(=O)N[C@@H]1CCN(C(=O)c2ccc(C(=O)N3C[C@@H](C(=O)N[C@H]4C[C@@H]4c4ccccc4)[C@H](C(=O)N[C@H]4C[C@@H]4c4ccccc4)C3)cc2)C1 [Compound 027, (3S,4S)-1-(4-((R)-3-pentadecanamidopyrrolidine-1-carbonyl)benzoyl)-N3,N4-bis((1S,2R)-2-phenylcyclopropyl)pyrrolidine-3,4-dicarboxamide]
11 | 0.1 to 50 | 51 to 350 | – | – | CCCCCCCCCCCCCCNC(=O)C1CN(C(=O)c2ccc(C(=O)N3C[C@@H](C(=O)N[C@H]4C[C@@H]4c4ccccc4)[C@H](C(=O)N[C@H]4C[C@@H]4c4ccccc4)C3)cc2)CCN1 (mixture of isomers) [Compound 054, (3S,4S)—N3,N4-bis ((1S,2R)-2-phenylcyclopropyl)-1-(4-(3-(tetradecylcarbamoyl)piperazine-1-carbonyl)benzoyl) pyrrolidine-3,4-dicarboxamide]
12 | 0.1 to 50 | – | 0.1 to 50 | – | CCCCCCCCCCCCCCNC(=O)[C@@H]1CCCN(C(=O)c2ccc(C(=O)N3C[C@@H](C(=O)N[C@H]4C[C@@H]4c4ccccc4)[C@H](C(=O)N[C@H]4C[C@@H]4c4ccccc4)C3)cc2)C1 [Compound 102, (3S,4S)—N3,N4-bis((1S,2R)-2-phenylcyclopropyl)-1-(4-((R)-3-(tetradecylcarbamoyl)piperidine-1-carbonyl)benzoyl) pyrrolidine-3,4-dicarboxamide]
13 | – | – | 0.1 to 50 | 351 to 1000 | CCCCCCCCC(=O)N[C@@H](Cn1cc(-c2ccc(C(=O)N3C[C@@H](C(=O)N[C@H]4C[C@@H]4c4ccccc4)[C@H](C(=O)N[C@H]4C[C@@H]4c4ccccc4)C3)cc2)nn1)C(=O)NCCCCCC [Compound 212, (3S,4S)-1-(4-(1-((S)-3-(hexylamino)-2-nonanamido-3-oxopropyl)-1H-1,2,3-triazol-4-yl)benzoyl)-N3,N4-bis ((1S,2R)-2-phenylcyclopropyl) pyrrolidine-3,4-dicarboxamide]
14 | – | – | 0.1 to 50 | 0.1 to 50 | CCCCCCCC(=O)N[C@@H](Cn1cc(-c2ccc(C(=O)N3C[C@@H](C(=O)N[C@H]4C[C@@H]4c4ccccc4)[C@H](C(=O)N[C@H]4C[C@@H]4c4ccccc4)C3)cc2)nn1)C(=O)NCCCCCC [Compound 219, (3S,4S)-1-(4-(1-((S)-3-(hexylamino)-2-octanamido-3-oxopropyl)-1H-1,2,3-triazol-4-yl)benzoyl)-N3,N4-bis((1S,2R)-2-phenylcyclopropyl)pyrrolidine-3,4-dicarboxamide]
15 | – | – | 0.1 to 50 | > 1000 | CCCCCCCCCCCNC(=O)N[C@H]1CN(C(c2ccc(C(=O)N3C[C@@H](C(=O)N[C@H]4C[C@@H]4c4ccccc4)[C@H](C(=O)N[C@H]4C[C@@H]4c4ccccc4)C3)cc2)C(F)(F)F)C[C@@H]1OC (single isomer, unassigned) [Compound 230, (3S,4S)—N3,N4-bis((1S,2R)-2-phenylcyclopropyl)-1-(4-((R*)-2,2,2-trifluoro-1-((3S,4S)-3-methoxy-4-(3-undecylureido)pyrrolidin-1-yl)ethyl)benzoyl)pyrrolidine-3,4-dicarboxamide]
16 | – | – | 0.1 to 50 | > 1000 | CCCCCCCCCCCCCNC(=O)N[C@H]1CN(C(=O)c2ccc(C(=O)N3C[C@@H](C(=O)N[C@H]4C[C@@H]4c4ccccc4)[C@H](C(=O)N[C@H]4C[C@@H]4c4ccccc4)C3)cc2)C[C@H]1OC [Compound 210, (3S,4S)-1-(4-((3R,4S)-3-methoxy-4-(3-tridecylureido)pyrrolidine-1-carbonyl)benzoyl)-N3,N4-bis((1S,2R)-2-phenylcyclopropyl)pyrrolidine-3,4-dicarboxamide]
